Legend:
Format in all cases: cell-based, rat
ELT3 cells = test: ELT3 cell proliferation assay (Hoechst 33258 DNA quantitation); details: for reduction in cell proliferation compared to the untreated control / cell proliferation increase from the control: estrogen-free
Method: The Eker rat tumor-derived ELT-3 uterine leiomyoma cells were grown in DMEM medium supplemented with 10% fetal bovine serum and 1% antibiotics (containing 100 U/ml penicillin and 100 μg/ml streptomycin. The cells were maintained in the 100 mm tissue culture dishes at 37° C. air with 5% CO2 and 95% humidity. When experiments required the addition of exogenous compounds, cells were weaned by culturing for 48 h in phenol red-free medium containing 10% Charcoal-stripped fetal calf serum. For proliferation assays, cells were plated onto 24-well plates in DMEM at a density of 4000 cells/well. The cells allowed to attach overnight and then treated with E2 (10^−6 to 10^−10 M) without COMT-inhibitor or with 10 μM of COMT-inhibitor, 2-OHE2 (10^−5 to 10^−10 M) without COMT-I, or with 10 μM COMT-I, 2-OHE2, or 2-MeOHE2 (10^−5 to 10^−10 M). Control cells were treated with medium containing 10 μl of absolute ethanol. After 48 hours, the cells were harvested for the proliferation assay. For western blot analysis, the cells were seeded in 100 mm plates at final density of 2×10^6 cells/plate. […] Cells were harvested 48 hours after treatment and cell lysates were used for western blotting. A fluorometric assay, implementing Hoechst 33258 (bisbenzimide), was used for DNA quantitation. ELT3 cells (5×10^3 cells/well) were plated (described above). The cells were allowed to attach overnight at 37° C., and then the media were replaced with media containing the appropriate treatment. Control cells were treated with a 1:1000 dilution of absolute ethanol. The cells were incubated with the treatments for 48 hours, followed by cell lysis and DNA content determination using Hoechst dye solution (10 μl/100 ml distilled H2O). Fluorescence was measured (DyNA Quant 200; Hoefer Pharmacia Biotech) after excitation at 365 nm and fluorescence at 458 nm. Calf thymus DNA was used as a standard to determine DNA concentration.

[1] = test system: estrogen response elements-luciferase reporter (AdERE-Luc) in ELT3 cells; test: AdERE-Luc reporter luciferase activity in ELT3 cells; details: for luciferase activity reduction compared to E2 (10^−8 M) alone: plus E2 10^−8 M
From the text: Transfection of ELT3 cells with recombinant ERE-Luciferase adenovirus vector was achieved by maintaining ELT 3 cells as described above. For infection with estrogen response elements-luciferase reporter adenoviral vector (Ad ERE-Luc), the cells were allowed to grow to 60-70% confluence and then infected with Ad ERE-Luc vector at multiplicity of infection (MOI) of 100 plaque-forming units (PFU)/cell for two hours in infection medium containing 2% FCS and 1% penicillin/streptomycin. Then, the infection media were removed and replaced with regular media. The transduction efficiency of the adenoviral vectors in ELT3 cells was tested using Ad LacZ vector. β-Galactosidase expression was detected in 95-100% of ELT3 cells at 48 h after infection with Ad LacZ at a 100 PFU. Therefore, subsequent experiments were performed using similar amounts (100 PFU/cell) of recombinant Ad ERE-Luc vector.
ELT3 cells transfected with AdERE-Luc were treated with E2 and with or without COMT-I or with different concentrations of 2-OHE2 (10^−10 to 10^−6 M) with or with out COMT-I (10 μM). After 48 h incubation with chemicals, cells were harvested with 100 μl of cell lysis buffer (Promega). Luciferase activity was determined using Luciferase Assay Kit (Promega) according to the manufacturer's instructions.

Bax = test: Western blot of Bax protein expression in ELT3 cells; details: 48 h
Method: (§1) The Eker rat tumor-derived ELT-3 uterine leiomyoma cells were grown in DMEM medium supplemented with 10% fetal bovine serum and 1% antibiotics (containing 100 U/ml penicillin and 100 μg/ml streptomycin. The cells were maintained in the 100 mm tissue culture dishes at 37° C. air with 5% CO2 and 95% humidity. When experiments required the addition of exogenous compounds, cells were weaned by culturing for 48 h in phenol red-free medium containing 10% Charcoal-stripped fetal calf serum. For proliferation assays, cells were plated onto 24-well plates in DMEM at a density of 4000 cells/well. The cells allowed to attach overnight and then treated with E2 (10^−6 to 10^−10 M) without COMT-inhibitor or with 10 μM of COMT-inhibitor, 2-OHE2 (10^−5 to 10^−10 M) without COMT-I, or with 10 μM COMT-I, 2-OHE2, or 2-MeOHE2 (10^−5 to 10^−10 M). Control cells were treated with medium containing 10 μl of absolute ethanol. […]
(§2) Immunoreactive proteins corresponding to VEGF, Cyclin D, Bcl-2, Bax, and β-actin were identified from total protein by western immunoblotting using specific monoclonal antibodies. […] After a 10-min spin at 10,000×g, the supernatant containing the total cell lysates were quantified using BCA Protein Assay Reagent (Pierce, Rockford, Ill.). […] The expression level of target proteins was quantitated densitometrically and normalized using β-actin expression.

Bcl2 = test: Western blot of Bcl2 protein expression in ELT3 cells; details: 48 h, maximal inhibition at 10 μM
Method: as §1, §2

cyclin D1 = test: Western blot of cyclin D1 protein expression in ELT3 cells; details: 48 h, maximal inhibition at 10 μM
Method: as §1, §2

VEGF = test: Western blot of VEGF protein expression in ELT3 cells; details: 48 h, maximal inhibition at 10 μM
Method: as §1, §2

[2] = COMT inhibitor 10^−5 M co-treatment, P<0.05

Q: With `O=C(c1cc(O)c(O)c([N+](=O)[O-])c1)c1ccccc1F` [COMT inhibitor, R0 41-0960] as the molecule, how does the “effect on the antiproliferative effect of high dose 2-OHE2” value (ELT3 cells; [2]) read?
A: The value was “augmented”.

Q: What about the “effect on the proliferative effect of low dose 2-OHE2” value (ELT3 cells; [2]) of the same molecule?
A: The value was “consistently antagonized”.

Q: And the “effect on E2-induced cell proliferation” value (ELT3 cells; COMT inhibitor 10^−5 M with E2 10^−10 to 10^−6 M, P<0.05 at all estrogen concentrations)?
A: The value was “consistently inhibited”.

Q: What about the “effect on E2-induced AdERE-luciferase at higher E2 concentrations” value ([1]; COMT inhibitor 10^−5 M, E2 10^-6 and 10^-5 M, P=0.056 and P=0.17) of the same molecule?
A: Its value is “less pronounced”.

Q: And the “AdERE-luciferase compared to treatment with E2 alone” value ([1]; COMT inhibitor 10^−5 M, E2 10^-10 to 10^-7 M, P<0.05)?
A: Its value is “significant down regulation”.

Q: With `C[C@]12CC[C@@H]3c4cc(O)c(O)cc4CC[C@H]3[C@@H]1CC[C@@H]2O` [2-OHE2, 2-Hydroxyestradiol] as the molecule, how does the “reduction in cell proliferation compared to the untreated control” value (ELT3 cells; 2-OHE2 10^−6 M) read?
A: Its value is 21%.

Q: And the “reduction in cell proliferation compared to the untreated control” value (ELT3 cells; 2-OHE2 10^−7 M)?
A: Its value is 16%.

Q: What about the cell proliferation increase (ELT3 cells; 2-OHE2 10^−8 M in the presence of E2 (10^−8 M)) of the same molecule?
A: Its cell proliferation increase is 33%.

Q: What about the “cell proliferation increase from the control” value (ELT3 cells; 2-OHE2 10^−8 M) of the same molecule?
A: The value was 61%.

Q: What about the cell proliferation increase (ELT3 cells; 2-OHE2 10^−9 M in the presence of E2 (10^−8 M)) of the same molecule?
A: The cell proliferation increase was 24%.

Q: What about the “cell proliferation increase from the control” value (ELT3 cells; 2-OHE2 10^−9 M) of the same molecule?
A: Its value is 54%.

Q: What about the cell proliferation increase (ELT3 cells; 2-OHE2 10^−10 M in the presence of E2 (10^−8 M)) of the same molecule?
A: Its cell proliferation increase is 10%.

Q: And the “cell proliferation increase from the control” value (ELT3 cells; 2-OHE2 10^−10 M)?
A: The value was 19%.

Q: And the “luciferase activity reduction compared to E2 (10^−8 M) alone” value (“luciferase activity reduction” for short) ([1]; 2-OHE2 10^−6 M)?
A: Its value is 39%.

Q: What about the “luciferase activity reduction” value ([1]; 2-OHE2 10^−7 M) of the same molecule?
A: The value was 32%.

Q: What about the “luciferase activity reduction” value ([1]; 2-OHE2 10^−8 M) of the same molecule?
A: Its value is 32%.

Q: And the “luciferase activity reduction” value ([1]; 2-OHE2 10^−10 to 10^−9 M)?
A: Its value is 30%.

Q: What about the AdERE-Luc activity ([1]; 2-OHE2, E2-free environment, concentration dependent) of the same molecule?
A: The AdERE-Luc activity was “up-regulated”.

Q: Which “concentration of maximum effect on ELT3 proliferation” value (ELT3 cells; E2 alone, 48 h) does the source give for `C[C@]12CC[C@@H]3c4ccc(O)cc4CC[C@H]3[C@@H]1CC[C@@H]2O` [E2, β-Estradiol] here?
A: Its value is 10^−8 M.

Q: And the “maximum up-regulation of AdERE-Luciferase” value ([1]; E2 10^−8 M)?
A: Its value is 6 fold.

Q: With `COc1cc2c(cc1O)CC[C@@H]1[C@@H]2CC[C@]2(C)[C@@H](O)CC[C@@H]12` [2-MeOHE2, 2-Methoxyestradiol] as the molecule, how does the Bax protein expression (Bax) read?
A: Its Bax protein expression is “gradient increase”.

Q: What about the “cell proliferation reduction compared to the corresponding control” value (“cell proliferation reduction” below) (ELT3 cells; 2-MeOHE2 5×10^−7 M) of the same molecule?
A: The value was 30%.

Q: What about the “cell proliferation increase from the untreated control” value (ELT3 cells; 2-MeOHE2 5×10^−8 M) of the same molecule?
A: The value was 31%.

Q: And the “cell proliferation reduction” value (ELT3 cells; 2-MeOHE2 10^−5 M)?
A: The value was 65%.

Q: What about the “cell proliferation reduction” value (ELT3 cells; 2-MeOHE2 10^−6 M) of the same molecule?
A: Its value is 51%.

Q: What about the “cell proliferation reduction” value (ELT3 cells; 2-MeOHE2 10^−7 M) of the same molecule?
A: The value was 16%.

Q: And the “cell proliferation increase from the untreated control” value (ELT3 cells; 2-MeOHE2 10^−8 M)?
A: Its value is 24%.

Q: And the “cell proliferation increase from the untreated control” value (ELT3 cells; 2-MeOHE2 10^−9 M)?
A: The value was 20%.

Q: And the “cell proliferation increase from the untreated control” value (ELT3 cells; 2-MeOHE2 10^−10 M)?
A: The value was 15%.

Q: And the Bcl2 protein expression (Bcl2)?
A: Its Bcl2 protein expression is “concentration-dependent inhibition”.

Q: And the “cyclin D1 protein expression” value (cyclin D1)?
A: Its value is “concentration-dependent inhibition”.

Q: And the VEGF protein expression (VEGF)?
A: Its VEGF protein expression is “concentration-dependent inhibition”.

From patent US7960133B2, “Methods of diagnosing leiomyoma by measuring catechol-O-methyltransferase” (The Board of Regents of the University of Texas System, priority 2003, dated 2011)
